From patent US9850203B2, “Autotaxin inhibitor compounds” (PharmAkea, Inc., priority 2013, dated 2017)

Biological target: human autotaxin (ATX) (Homo sapiens (Human), UniProt Q13822)
Test: Human Autotaxin Assay
Type: biochemical
Conditions: concentrated conditioned media from Hep3B cells; LPC substrate, choline release
Protocol: ATX activity is assayed in concentrated conditioned media from Hep3B human hepatocellular carcinoma cells by measuring the amount of choline released from the substrate, lysophosphatidylcholine (LPC) as it is cleaved to LPA. Conditioned media is collected from confluent Hep3B cells and concentrated 20-fold using Centriprep-30 filter devices (Millipore). To assay for autotaxin inhibition, 10-20 μL of the concentrated conditioned media is incubated with 2.5 μL of a test compound in DMSO and 72.5-82.5 μL lyso-PLD buffer (100 mM Tris pH 9, 500 mM NaCl, 5 mM MgCl2, 5 mM CaCl2, 0.05% Triton X-100 in the presence or absence of 0.2% fatty-acid-free human serum albumin) for 15 min at 37° C. After the 15 min incubation, 5 uL of 2 mM LPC (14:0; Avanti Polar Lipids Cat#855575C) diluted in lyso-PLD buffer is added for a final concentration of 100 uM and the incubation continues for 1.5-3 hours at 37° C.

SMILES | IC50
Cc1c(Sc2cccc(C(=O)O)c2)c2ccc(Cl)c(F)c2n1CC(=O)N1CCC(CCc2ccccc2)CC1 [Compound 1-62, 3-((6-Chloro-7-fluoro-2-methyl-1-(2-oxo-2-(4-phenethylpiperidin-1-yl)ethyl)-1H-indol-3-yl)thio)benzoic acid] | 500 to 3000 nM
Cc1c(Sc2cccc(C(=O)O)c2)c2ccc(Cl)c(F)c2n1CC(=O)N1CCC2(CC1)CC(C#N)C2 [Compound 1-19, 3-((6-Chloro-1-(2-(2-cyano-7-azaspiro[3.5]nonan-7-yl)-2-oxoethyl)-7-fluoro-2-methyl-1H-indol-3-yl)thio)benzoic acid] | ≤ 500 nM
Cc1c(Sc2cccc(C(=O)O)c2)c2ccc(Cl)c(F)c2n1CC(=O)NC(C)C [Compound 1-1, 3-((6-Chloro-7-fluoro-1-(2-(isopropylamino)-2-oxoethyl)-2-methyl-1H-indol-3-yl)thio)benzoic acid] | ≤ 500 nM
Cc1c(Sc2cccc(C(=O)O)c2F)c2ccc(Cl)c(F)c2n1CC(=O)N1C[C@H](O)[C@@H](N2CCOCC2)C1 [Compound 2-65, 3-((6-Chloro-7-fluoro-1-(2-((3S,4S)-3-hydroxy-4-morpholinopyrrolidin-1-yl)-2-oxoethyl)-2-methyl-1H-indol-3-yl)thio)-2-fluorobenzoic acid] | ≤ 500 nM
Cc1c(Sc2cccc(C(=O)O)c2)c2ccc(Cl)c(F)c2n1CC(=O)N1CCC(Cc2cnn(C)c2)C1 (stereo not shown) [Compound 1-93, 3-((6-Chloro-7-fluoro-2-methyl-1-(2-(3-((1-methyl-1H-pyrazol-4-yl)methyl)pyrrolidin-1-yl)-2-oxoethyl)-1H-indol-3-yl)thio)benzoic acid] | ≤ 500 nM
Cc1c(Sc2cccc(C(=O)O)c2F)c2ccc(Cl)c(F)c2n1CC(=O)N1CC[C@@H](CO)C1 [Compound 2-64, (R)-3-((6-Chloro-7-fluoro-1-(2-(3-(hydroxymethyl)pyrrolidin-1-yl)-2-oxoethyl)-2-methyl-1H-indol-3-yl)thio)-2-fluorobenzoic acid] | ≤ 500 nM
Cc1c(Sc2cccc(C(=O)O)c2)c2ccc(Cl)c(F)c2n1CC(=O)N1CCC2(CCNC(=O)CC2)CC1 [Compound 1-53, 3-((6-Chloro-7-fluoro-2-methyl-1-(2-oxo-2-(10-oxo-3,9-diazaspiro[5.6]dodecan-3-yl)ethyl)-1H-indol-3-yl)thio)benzoic acid] | ≤ 500 nM
Cc1c(Sc2cccc(C(=O)O)c2)c2ccc(Cl)c(F)c2n1CC(=O)N1CCC(O)(C(F)(F)F)C1 (stereo not shown) [Compound 1-37, 3-((6-Chloro-7-fluoro-1-(2-(3-hydroxy-3-(trifluoromethyl)pyrrolidin-1-yl)-2-oxoethyl)-2-methyl-1H-indol-3-yl)thio)benzoic acid] | ≤ 500 nM
Cc1c(Sc2cccc(C(=O)O)c2)c2ccc(Cl)c(F)c2n1CC(=O)N1CCCC1c1cnn(C)c1 (stereo not shown) [Compound 1-85, 3-((6-Chloro-7-fluoro-2-methyl-1-(2-(2-(1-methyl-1H-pyrazol-4-yl)pyrrolidin-1-yl)-2-oxoethyl)-1H-indol-3-yl)thio)benzoic acid] | ≤ 500 nM
Cc1c(Sc2cccc(C(=O)O)c2F)c2ccc(Cl)c(F)c2n1CC(=O)N1CC(O)(C2CC2)C1 [Compound 2-63, 3-((6-Chloro-1-(2-(3-cyclopropyl-3-hydroxyazetidin-1-yl)-2-oxoethyl)-7-fluoro-2-methyl-1H-indol-3-yl)thio)-2-fluorobenzoic acid] | ≤ 500 nM
Cc1c(Sc2cccc(C(=O)O)c2F)c2ccc(Cl)c(F)c2n1CC(=O)N1CC2(CC2)c2cc(F)ccc21 [Compound 3-23, 3-[6-Chloro-7-fluoro-1-[2-(5′-fluorospiro[cyclopropane-1,3′-indoline]-1′-yl)-2-oxo-ethyl]-2-methyl-indol-3-yl]sulfanyl-2-fluoro-benzoic acid] | ≤ 500 nM
Cc1c(Sc2cccc(C(=O)O)c2)c2ccc(Cl)c(F)c2n1CC(=O)N(C)c1ccccc1 [Compound 1-8, 3-((6-Chloro-7-fluoro-2-methyl-1-(2-(methyl(phenyl)amino)-2-oxoethyl)-1H-indol-3-yl)thio)benzoic acid] | 500 to 3000 nM
Cc1c(Sc2cccc(C(=O)O)c2)c2ccc(Cl)c(F)c2n1CC(=O)N1CC2(CCCC2)c2ccccc21 [Compound 1-39, 3-((6-Chloro-7-fluoro-2-methyl-1-(2-oxo-2-(spiro[cyclopentane-1,3′-indolin]-1′-yl)ethyl)-1H-indol-3-yl)thio)benzoic acid] | ≤ 500 nM
Cc1c(Sc2cccc(C(=O)O)c2)c2ccc(Cl)c(F)c2n1CC(=O)N1CCc2ccncc21 [Compound 1-97, 3-((6-Chloro-1-(2-(2,3-dihydro-1H-pyrrolo[2,3-c]pyridin-1-yl)-2-oxoethyl)-7-fluoro-2-methyl-1H-indol-3-yl)thio)benzoic acid] | ≤ 500 nM
Cc1c(Sc2cccc(C(=O)O)c2)c2ccc(Cl)c(F)c2n1CC(=O)N1CCC2(CC1)CC2C(=O)N1CCCC1 (stereo not shown) [Compound 1-40, 3-((6-Chloro-7-fluoro-2-methyl-1-(2-oxo-2-(1-(pyrrolidine-1-carbonyl)-6-azaspiro[2.5]octan-6-yl)ethyl)-1H-indol-3-yl)thio)benzoic acid] | 500 to 3000 nM
Cc1c(Sc2cccc(C(=O)O)c2)c2ccc(Cl)c(F)c2n1CC(=O)N1CC(C)(O)C1 [Compound 1-52, 3-((6-Chloro-7-fluoro-1-(2-(3-hydroxy-3-methylazetidin-1-yl)-2-oxoethyl)-2-methyl-1H-indol-3-yl)thio)benzoic acid] | ≤ 500 nM
Cc1ccc2c(c1)CCN2C(=O)Cn1c(C)c(Sc2cccc(C(=O)O)c2)c2ccc(Cl)c(F)c21 [Compound 1-92, 3-((6-Chloro-7-fluoro-2-methyl-1-(2-(5-methylindolin-1-yl)-2-oxoethyl)-1H-indol-3-yl)thio)benzoic acid] | ≤ 500 nM
Cc1c(Sc2cccc(C(=O)O)c2)c2ccc(Cl)c(F)c2n1CC(=O)N1CCCC(O)(C(F)(F)F)C1 (stereo not shown) [Compound 1-83, 3-((6-Chloro-7-fluoro-1-(2-(3-hydroxy-3-(trifluoromethyl)piperidin-1-yl)-2-oxoethyl)-2-methyl-1H-indol-3-yl)thio)benzoic acid] | ≤ 500 nM
Cc1c(Sc2cccc(C(=O)O)c2)c2ccc(Cl)c(F)c2n1CC(=O)N1CCC(Cc2ccc(F)cc2)C1 (single isomer, unassigned; enantiomer a) [Compound 1-65, 3-((6-Chloro-7-fluoro-1-(2-(3-(4-fluorobenzyl)pyrrolidin-1-yl)-2-oxoethyl)-2-methyl-1H-indol-3-yl)thio)benzoic acid Enantiomer A] | ≤ 500 nM
Cc1c(Sc2cccc(C(=O)O)c2)c2ccc(Cl)c(F)c2n1CC(=O)N1CCCC2(CNC(=O)O2)C1 (stereo not shown) [Compound 1-69, 3-((6-Chloro-7-fluoro-2-methyl-1-(2-oxo-2-(2-oxo-1-oxa-3,7-diazaspiro[4.5]decan-7-yl)ethyl)-1H-indol-3-yl)thio)benzoic acid] | ≤ 500 nM
Cc1c(Sc2cccc(C(=O)O)c2)c2ccc(Cl)c(F)c2n1CC(=O)N1CCCCC1 [Compound 1-10, 3-((6-Chloro-7-fluoro-2-methyl-1-(2-oxo-2-(piperidin-1-yl)ethyl)-1H-indol-3-yl)thio)benzoic acid] | ≤ 500 nM
O=C(O)c1cccc(Sc2c(Cl)n(CC(=O)N3CC4(CCC4)c4ccccc43)c3c(F)c(Cl)ccc23)c1F [Compound 4-121, Sodium 3-((2,6-dichloro-7-fluoro-1-(2-oxo-2-(spiro[cyclobutane-1,3′-indolin]-1′-yl)ethyl)-1H-indol-3-yl)thio)-2-fluorobenzoate] | ≤ 500 nM
Cc1c(Sc2cccc(C(=O)O)c2F)c2ccc(Cl)c(F)c2n1CCN1CC2(CCC2)c2ccccc21 [Compound 2-75, 3-((6-Chloro-7-fluoro-2-methyl-1-(2-(spiro[cyclobutane-1,3′-indolin]-1′-yl)ethyl)-1H-indol-3-yl)thio)-2-fluorobenzoic acid] | ≤ 500 nM
Cc1c(Sc2cccc(C(=O)O)c2)c2ccc(Cl)c(F)c2n1CC(=O)N1CCC(Cc2ccc(C(F)(F)F)cc2)C1 (stereo not shown) [Compound 1-78, 3-((6-Chloro-7-fluoro-2-methyl-1-(2-oxo-2-(3-(4-(trifluoromethyl)benzyl)pyrrolidin-1-yl)ethyl)-1H-indol-3-yl)thio)benzoic acid] | 500 to 3000 nM
Cc1c(Sc2cccc(C(=O)O)c2)c2ccc(Cl)c(F)c2n1CC(=O)N1CCc2ccccc2C1 [Compound 1-79, 3-((6-Chloro-1-(2-(3,4-dihydroisoquinolin-2(1H)-yl)-2-oxoethyl)-7-fluoro-2-methyl-1H-indol-3-yl)thio)benzoic acid] | ≤ 500 nM
Cc1c(Sc2cccc(C(=O)O)c2)c2ccc(Cl)c(F)c2n1CC(=O)N1CCC(CCn2cccn2)CC1 [Compound 1-61, 3-((1-(2-(4-(2-(1H-Pyrazol-1-yl)ethyl)piperidin-1-yl)-2-oxoethyl)-6-chloro-7-fluoro-2-methyl-1H-indol-3-yl)thio)benzoic acid] | ≤ 500 nM
Cc1c(Sc2cccc(C(=O)O)c2)c2ccc(Cl)c(F)c2n1CC(=O)N1CCCC2(CNC(=O)C2)C1 (stereo not shown) [Compound 1-35, 3-((6-Chloro-7-fluoro-2-methyl-1-(2-oxo-2-(3-oxo-2,7-diazaspiro[4.5]decan-7-yl)ethyl)-1H-indol-3-yl)thio)benzoic acid] | ≤ 500 nM
Cc1c(Sc2cccc(C(=O)O)c2)c2ccc(Cl)c(F)c2n1CC(=O)N1CCC(c2ccc(F)cc2)C1 (single isomer, unassigned; enantiomer b) [Compound 1-75, 3-((6-Chloro-7-fluoro-1-(2-(3-(4-fluorophenyl)pyrrolidin-1-yl)-2-oxoethyl)-2-methyl-1H-indol-3-yl)thio)benzoic acid Enantiomer B] | ≤ 500 nM
